{"source": "patent US10091997B2", "about": "“Composition for inhibition of insect host sensing” (Vanderbilt University, priority 2010, dated 2018)", "key": {"AgORco": {"molecular_target": "T1, AgORco (Anopheles gambiae, UniProt Q7QCC7)", "T1 construct": "expressed in transfected cells", "T1 sequence (Q7QCC7 1-478)": "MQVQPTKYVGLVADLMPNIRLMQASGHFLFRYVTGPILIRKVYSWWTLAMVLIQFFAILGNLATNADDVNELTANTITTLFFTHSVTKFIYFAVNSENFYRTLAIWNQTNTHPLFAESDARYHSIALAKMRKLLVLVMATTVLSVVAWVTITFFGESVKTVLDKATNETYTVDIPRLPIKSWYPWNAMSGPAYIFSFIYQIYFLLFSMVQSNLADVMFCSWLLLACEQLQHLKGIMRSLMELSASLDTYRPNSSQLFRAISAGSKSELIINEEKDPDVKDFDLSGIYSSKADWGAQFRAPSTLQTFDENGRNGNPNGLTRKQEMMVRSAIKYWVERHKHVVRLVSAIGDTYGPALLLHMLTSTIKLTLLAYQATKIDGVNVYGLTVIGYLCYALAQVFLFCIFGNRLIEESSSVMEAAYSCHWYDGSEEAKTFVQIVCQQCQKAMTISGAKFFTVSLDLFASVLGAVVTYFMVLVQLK", "assay": "whole-cell patch clamp, HEK293 cells stably expressing AgORco alone", "type": "cell-based", "protocol": "(§1) Currents from OR-expressing HEK293 cells were amplified with an Axopatch 200b Amplifier (Axon Instruments) and digitized through a Digidata 1322A (Axon Instruments). Electrophysiological data was recorded and analyzed using pCLAMP 10 (Axon Instruments). Electrodes were fabricated from quartz tubing (Sutter Instruments) and pulled to 4-6 MΩ for whole cell recording. Electrodes were filled with internal solution (120 mM KCl, 30 mM D-glucose, 10 mM HEPES, 2 mM MgCl2, 1.1 mM EGTA, and 0.1 CaCl2 (pH 7.35, 280 mOsm). External (bath) solution contained 130 mM NaCl, 34 mM D-glucose, 10 mM HEPES, 1.5 mM CaCl2, 1.3 mM KH2PO4, and 0.5 MgSO4 (pH 7.35, 300 mOsm). Compounds were diluted in external solution and locally perfused to the recording cell using Perfusion Pencil (Automate Scientific) and controlled by a ValveLink 8.2 controller (Automate Scientific). Whole cell recordings were sampled at 10 kHz and filtered at 5 kHz. Outside-out patches were obtained using 10-15MΩ electrodes pulled from standard glass capillaries (World Precision Instruments) and fire-polished with an MF-830 micro forge (Narishige). Single channel recordings were sampled at 20 kHz. Recordings were reduced to 1 kHz and low-pass filtered at 500 Hz for display and analysis using QuB (SUNY at Buffalo).\n(§2) To test the hypothesis that VUAA1 directly agonized AgORco, whole-cell patch clamp responses were examined in AgORco+AgOR10 expressing cells as well HEK293 cells stably expressing AgORco alone. […] The VUAA1-dependent currents in AgORco+AgOR10 cells resembled those resulting from application of benzaldehyde, an orthosteric agonist of AgOR10 (FIG. 3C) (Wang, 2010; Carey, 2010). AgORco+AgOR10 cells were more sensitive to VUAA1 than AgORco cells, producing inward currents at −5.0 log M, a concentration at which AgORco had no response. […] To investigate the specificity of VUAA1 agonism, the inventors transiently transfected HEK cells with the AgORco orthologs of Drosophila melanogaster and Heliothis virescens, DmOR83b and HvOR2 respectively."}, "AgORco+AgOR10": {"system": "AgORco+AgOR10", "assay": "whole-cell patch clamp, HEK293 cells expressing AgORco+AgOR10", "type": "cell-based, Anopheles gambiae", "details": "AgORco+AgOR10 cells", "protocol": "as §1, §2"}, "DmOR83b": {"molecular_target": "T2, DmOR83b (Drosophila melanogaster, UniProt Q9VNB5)", "T2 construct": "expressed in transfected cells; host or cells: Flp-In T-REx 293 (HEK), transient, pCI vector, GFP co-transfected", "T2 sequence (Q9VNB5 1-486)": "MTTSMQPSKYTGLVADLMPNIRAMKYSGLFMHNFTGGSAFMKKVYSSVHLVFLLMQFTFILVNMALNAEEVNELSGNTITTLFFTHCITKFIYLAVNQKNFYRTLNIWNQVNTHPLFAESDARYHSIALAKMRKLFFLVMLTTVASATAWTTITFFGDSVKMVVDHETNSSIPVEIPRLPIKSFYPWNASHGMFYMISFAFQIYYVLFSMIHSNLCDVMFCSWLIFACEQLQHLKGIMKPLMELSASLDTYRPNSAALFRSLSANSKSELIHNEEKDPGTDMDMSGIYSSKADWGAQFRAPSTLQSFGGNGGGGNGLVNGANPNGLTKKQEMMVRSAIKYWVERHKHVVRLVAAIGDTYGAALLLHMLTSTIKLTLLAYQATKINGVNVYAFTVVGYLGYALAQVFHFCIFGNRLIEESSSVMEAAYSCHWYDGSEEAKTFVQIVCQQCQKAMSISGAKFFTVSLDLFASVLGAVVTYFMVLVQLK", "assay": "whole-cell patch clamp, HEK cells transiently transfected with DmOR83b", "type": "cell-based", "details": "HEK cells expressing DmOR83b, −60 mV", "excerpt": "For transient transfections, ORs were cloned into pCI (Promega) and transfected into Flp-In™ T-REx™293 cell lines (Invitrogen) with Fu GENE6 (Roche). For the creation of stable cell lines, a cell culture expression vector capable of expressing AgORco in conjunction with a conventional OR, pcDNA5/FRT/TO (Invitrogen) was modified to create two individual expression cassettes each under the control of a separate CMV/TetO2 promoter and a BGH poly-adenylation signal. Cells (as above) were transfected with the modified pcDNA5 plasmid along with POG44 (a Flp recombinase expression plasmid) to facilitate site-specific recombination. Stable cell lines were selected using Hygromycin B (Invitrogen). Cells were maintained in DMEM (Invitrogen) supplemented with 10% Tetracycline-free FBS (HyClone) and 15 μg/ml Blasticidin. […] Baseline readings were taken for 20 s before automated addition of compound previously diluted in DMSO and assay buffer. […]\nCurrents from OR-expressing HEK293 cells were amplified with an Axopatch 200b Amplifier (Axon Instruments) and digitized through a Digidata 1322A (Axon Instruments). Electrophysiological data was recorded and analyzed using pCLAMP 10 (Axon Instruments). […]"}}, "data": [{"compound": "CCc1ccc(NC(=O)CSc2nnc(-c3cccnc3)n2CC)cc1", "note": "[VUAA1]", "values": [{"measurement": "whole-cell currents", "setting": "AgORco; AgORco alone cells, clamped at −60 mV", "result": "concentration-dependent inward currents"}, {"measurement": "whole-cell response at −5.0 log M", "setting": "AgORco; AgORco alone cells, −5.0 log M", "result": "no response"}, {"measurement": "reversal potential", "setting": "AgORco; AgORco alone, mean±s.e.m.", "result": "+0.4±1.1 mV"}, {"measurement": "whole-cell currents", "setting": "AgORco+AgOR10; clamped at −60 mV", "result": "concentration-dependent inward currents"}, {"measurement": "concentration producing inward currents", "setting": "AgORco+AgOR10; whole-cell", "result": "−5.0", "unit": "log M"}, {"measurement": "whole-cell currents", "setting": "DmOR83b", "result": "robust inward currents"}]}]}
